These results are taken from patent US20040171824A1, “A Lac operator-repressor system” (priority 2001, published 2004).

Structures are written as SMILES.

Series [1] relates to tyrosinase expression in Tyr^lacO, LacI double transgenic embryos and pups. Put plainly: Transplacental IPTG regulation and reversibility of pigmentation in embryonic and newborn double transgenic mice. It is filed as in vivo, mouse. The source says:
To determine if lac elements could regulate pigmentation during embryogenesis and if IPTG could act transplacentally, the pigmentation in the developing retinal pigment epithelium of embryonic and newborn mice was investigated. At E9, tyrosinase activity in the embryonic eye of wild type mice begins to deposit pigment in the developing retinal pigment epithelium. At E12.5, the mouse RPE clearly is pigmented. Tyr^lacO (43) transgenic mice recapitulate this developmental event. A distinct band of pigmentation surrounding the central lens is seen in the Tyrosinase transgenic embryo that is not seen in the nontransgenic albino.
Finally, the reversibility of the system was tested by switching the Tyrosinase transgene on after it had been off, or off after it had been on, in the same animal. The phenotypes of eyes of newborn mice were compared to the phenotypes of embryonic eyes of mice of the same genotype. […] However, at E12.5, this double transgenic pup has the albino phenotype. […] Reversibility was also observed with regards to switching off the tyrosinase gene after it had intially been on. […] As expected, the eyes remain pigmented due to the low turnover of cells and melanosomes in the RPE.
For embryonic eyes, pregnant females were euthanized at E12.5, and the embryos removed. The head of each embryo was fixed in 2% paraformaldehyde in 0.1 M phosphate (pH 7.4), and the lower half was taken for genotyping. Tyrosinase activity was derepressed by replacing the drinking water with a 10 mM solution of IPTG (changed every four days). To allow for the normal pattern of tyrosinase expression during development, the female was started on 10 mM IPTG at day 7 of pregnancy.

Series [2] concerns tyrosinase expression in Tyr^lacO, LacI double transgenic mice. Put plainly: IPTG derepression of tyrosinase expression (pigmentation) in Tyr^lacO, LacI double transgenic mice. It is filed as in vivo, mouse. Here is the method: The lac operator-repressor system of the present invention was tested in mice using a regulatable version of a well-characterized visible marker gene, tyrosinase. Tyrosinase is the protein product of the albino (c) locus (Kwon et al., PNAS 84, 7473-7477 (1987)), and is the enzyme that catalyzes the first step in melanin biosynthesis. The target transgene consists of the wildtype murine tyrosinase cDNA under the control of the murine tyrosinase promoter modified to contain lac operator sequences (See FIG. 2). The major transcription start site in the tyrosinase promoter is 83 bp upstream of the start codon. To maintain the endogenous spacing of promoter elements in the critical region between the start of transcription and the start of translation, a PCR-based, site-directed mutagenesis was used to change 25 bp of the endogenous sequence to create a primary lac operator centered at 59 bp upstream of the start of translation. Additional operators were inserted 176 bp and 526 bp upstream of the primary operator (FIG. 2). Mice containing this modified Tyrosinase transgene resemble pigmented animals previously described (Methot et al., nucleic Acids Research, 23, 4551-4556 (1995)) that had been microinjected with an unregulatable version of the same transgene. Two lines of pigmented Tyrosinase transgenic mice were established containing the regulatable transgene. […]

In series [3] the test system is mouse L-cells stably transfected with lacI expression vector. To be noted: MSV-CAT reporter with lac operators; cited from earlier work.
A short description of series [4]: Tolerability of IPTG in the drinking water of Tyr^lacO, LacI double-transgenic mice. It is filed as in vivo, mouse. The method, then:
Tyrosinase activity was derepressed by replacing the drinking water with a 10 mM solution of IPTG (changed every four days). To allow for the normal pattern of tyrosinase expression during development, the female was started on 10 mM IPTG at day 7 of pregnancy.

The conditions of series [5]: cited from earlier work.

For `CC(C)S[C@@H]1O[C@H](CO)[C@H](O)[C@H](O)[C@H]1O` [IPTG, isopropyl-β-D-thiogalactoside], the “pigmentation of the embryonic RPE” value in series [1] (double-transgenic embryo at E12.5, mother on 10 mM IPTG in drinking water during pregnancy) is “not when the mother was treated with IPTG during pregnancy”. In series [1] (mother given IPTG in drinking water), the placental transfer entry was “can cross the placenta”. In addition, the “switching tyrosinase expression on after a period of silencing (eye pigmentation at birth)” value in series [1] (mother started on IPTG at E12.5 of pregnancy) is “able to switch tyrosinase expression on”. For the same molecule, in series [1] (pup's mother taken off IPTG at P9), the “coat phenotype after removal of IPTG” value is recorded as “reversion of the coat phenotype to albino”. For the same molecule, in series [2] (double transgenic animal, 10 mM IPTG in the drinking water), the “tyrosinase expression / coat phenotype” value is recorded as “derepressed tyrosinase expression”. The “pigmentation in the retinal pigment epithelium (RPE)” value in series [2] (double transgenic mouse treated with IPTG, eye sections) is recorded as “restoration of pigmentation in the RPE to levels indistinguishable from the nonrepressed state”. Also, in series [3], the CAT activity result is reported as “marked de-repression of CAT activity”. The “deleterious effects on long-term administration” value in series [4] (10 mM IPTG in drinking water for up to 8 months) is listed as “no deleterious effects”. Moreover, the “toxicity of the circulating level that derepresses target gene expression” value in series [4] (IPTG in the drinking water) is “completely nontoxic”. Also, in series [5] (adult animal, spleen, liver, lung, kidney, brain, adipose tissue), the tissue distribution result is listed as “widespread”. The “nuclear uptake of inducer, of the total cell uptake” value in series [5] (average) was 18%. Besides, in series [5] (in vivo), the “clearance from the blood” value was “rapidly cleared from the blood”, the “metabolism in the animal” value is “not metabolized”, the “relative concentration of inducer to repressor molecules versus that required for maximal induction in E. coli” value is reported as about 1000 fold and the “time functionally active after introduction into the bloodstream” value is listed as “at least 4 hours”. Further, the “time to reach high levels in cells of tissues” value in series [5] (uptake by facilitated transport into tissues of the animal) is 2 to 4 h.
